From patent US20250057832A1, “USE OF A CLASS OF 1,4-DIHYDRO-NAPHTHYRIDINE DERIVATIVES IN TREATMENT OF TUMORS” (NEURODAWN PHARMACEUTICAL CO., LTD., priority 2021, published 2025) come the findings set out here.

In general, pIC50 refers to the IC50 on a negative log10 scale, so that one unit is a factor of ten.

One assay deals with CT26.WT. The assay can be described thus: Vacuolation phenotype by S2 (Example 2). In kind it is cell-based, mouse. As to conditions: 30 μM, 6 hours. The method, then: (§1) U87MG, T98G, U251, SK-N-SH, A-172 and HepG2 cells were adherently cultured in MEM+10% FBS+1% P/S medium and passaged at 1:3; CT26.WT cells were adherently cultured in RPMI-1640+10% FBS+1% P/S medium and passaged at 1:3; CHO-K1 was cultured adherently in Ham's F-12K+10% FBS+[…] medium and passaged at 1:3.
The cells used above were resuscitated and passaged twice stably. When the cell density reached above 85%, the cells were digested with 0.05% trypsin-EDTA for 3 minutes, resuspended with the culture medium, and plated into a 6-well plate at a certain density, with each well system being 2 mL. The cells were cultured for 24 hours, added with 2 μL of the above-prepared S2 solution (final DMSO concentration 0.1%) to each well according to the grouping, such that the S2 concentration in the cell culture system reached 30 μM.
After 6 hours of drug treatment, the plate was observed under a microscope with a 20× objective lens, and five fields of view were randomly selected for each well to take photos and record. […]

For another assay, the system named is SK-N-SH. The assay can be described thus: Cell viability assay (Example 2). The format is cell-based. As to conditions: Homo sapiens, 48 hours. The method, then:
as §1
(§2) The above various cells were resuscitated and stably passaged twice. When the cell density reached above 85%, the cells were digested with 0.05% trypsin-EDTA for three minutes, resuspended, plated in a 96-well plate at the corresponding density, and cultured for 24 hours. The cells were treated with drugs at final concentrations of the culture system of 0.41 μM, 1.23 μM, 3.7 μM, 11.1 μM, 33.3 μM, and 100 μM. After 48 hours of drug treatment, cell viability was determined using CellCounting-Lite™ 2.0 kit. The plate was added with reagents at 100 µL/well according to the CellCounting-Lite™ 2.0 kit instructions, and shaken for 10 minutes. The luminescence value (LUM) was read on a multi-function plate reader, and the relative viability of the cells was calculated.
(§3) Relative viability of tumor cells V (%)=(LUM-LUMbackground)/(LUMnormal control−LUMbackground)×100%. LUMbackground was the background reading of the complete culture medium well added with the detection reagent. The half inhibitory concentration (IC50) was calculated using GraphPad Prism 8.0.1 statistical software.

Another assay deals with U87MG. The assay can be described thus: Cell viability assay (Example 2). The settings on record: Homo sapiens, U-87 MG, 48 hours. The format is cell-based. The method, then:
as §1, §2, §3

pIC50: −log10 of the molar value.

Turning to `CCOC(=O)C1=C(C)Nc2nc3c(c(N)c2C1c1ccccc1Cl)CC(C)(C)CC3` (stereo not drawn) [Compound S2], the Induction of vacuolation entry with CT26.WT is recorded as “can also induce vacuolation”. Also, the pIC50 in the assay with SK-N-SH was 4.94; with U87MG, 4.93.
